# Assay results as given in ChEMBL document CHEMBL1153415, “Evaluation of antioxidant properties of monoaromatic derivatives of pulvinic acids” (J Med Chem, 2009).
# Activity calls are given as the source filed them. The rule behind the calls is not given here.
# How the values were obtained:
# [1] = Antioxidant activity against UV/H2O2-induced thymidine degradation by thymidine protection assay; format: functional
# [2] = Antioxidant activity against superoxide radical assessed as trolox equivalents by luminol-enhanced chemiluminescence; format: functional
# [3] = Antioxidant activity against […]/EDTA/H2O2-induced pEGFPLuc plasmid DNA degradation assessed as remaining supercoiled DNA form at 125 uM by gel-electrophoresis; format: functional
# [4] = Antioxidant activity against Fe/EDTA/H2O2-induced thymidine degradation by thymidine protection assay; format: functional
# CHO = assay: Cytotoxicity against CHO cells at 10 to 100 uM by MTT assay relative to control; format: cell-based, Cricetulus griseus; details: chinese hamster
# [5] = Antioxidant activity against Fe/EDTA/H2O2-induced thymidine degradation at 100 uM by thymidine protection assay; format: functional
# [6] = Antioxidant activity against UV/H2O2-induced thymidine degradation at 100 uM by thymidine protection assay; format: functional
Structure (SMILES),EC50 [1] [µM],Activity [2] [µg],Activity [3],EC50 [4] [µM],Activity (CHO),Activity [5],Activity [6]
CCCCNC(=O)/C(C)=C1/OC(=O)C(c2ccc(OC)cc2)=C1O,91,86,40%,226,Non-toxic,37%,30%
COC(=O)/C(=C1/OC(=O)C(c2ccccc2)=C1O)c1ccccc1,–,–,–,–,–,Active,Active
COc1ccc(/C(C(=O)OC(C)C)=C2\OC(=O)C(C)=C2O)cc1,–,77,–,–,Non-toxic,–,–
COC(=O)/C(C)=C1/OC(=O)C(c2ccc(Br)cc2)=C1O,–,113,Active,–,Non-toxic,Active,Active
COC(=O)/C(C)=C1/OC(=O)C(c2ccc(F)cc2)=C1O,–,–,Active,–,–,Active,Active
COC(=O)/C(C)=C1/OC(=O)C(c2ccc(OC)cc2)=C1O,130,141,40%,196,–,–,–
COC(=O)/C(C)=C1/OC(=O)C(/C=C/c2ccccc2)=C1O,–,–,Active,–,–,Active,Active
COC(=O)/C(=C1/OC(O)=C(c2ccc(OC)cc2)C1=O)c1ccc(OC)cc1,90,54,Active,109,Non-toxic,–,–
COc1ccc(C2=C(O)/C(=C(/C)C(=O)NCCCN)OC2=O)cc1,–,81,40%,–,–,37%,30%
COC(=O)/C(C)=C1/OC(=O)C(c2ccc(C(C)C)cc2)=C1O,–,–,Active,–,–,Active,Active
COC(=O)/C(=C1/OC(=O)C(C)=C1O)c1ccccc1,220,–,–,850,Non-toxic,–,–
COc1ccc(C2=C(O)/C(=C(/C)C(C)(C)O)OC2=O)cc1,117,–,40%,608,Non-toxic,–,–
COC(=O)/C(=C1/OC(=O)C(C)=C1O)c1ccc(OC)cc1,175,–,–,971,–,–,–
COc1ccc(C2=C(O)/C(=C(/C)C(=O)N(C)OC)OC2=O)cc1,–,–,Active,–,–,37%,30%
COC(=O)/C(C)=C1/OC(=O)C(c2ccccc2)=C1O,–,–,Active,–,Non-toxic,–,–
COc1ccc(C2=C(O)/C(=C(/C)C(=O)OC(C)C)OC2=O)cc1,–,105,Active,–,–,37%,27%
COc1ccc(C2=C(O)/C(=C(/C)C(=O)N3CCOCC3)OC2=O)cc1,–,79,Active,–,Non-toxic,37%,30%
COC(=O)/C(=C1/OC(=O)C(C)=C1O)c1ccc(Br)cc1,–,87,–,–,–,–,–
